Here are results for 25 compounds from paper PMC10779641, “Synthesis and Activity Evaluation of Vinpocetine-Derived Indole Alkaloids” (Molecules, 2023).

In the experiment the target is PDE1A (Homo sapiens, UniProt P54750). The experiment can be described thus: PDE1A enzyme inhibition (fluorescence polarization, FAM-cyclic-3',5'-AMP). As to conditions: for IC50: 15 ng/mL PDE1A, 100 nM FAM-cAMP, 25 °C, 1 h; for PDE1A inhibitory activity compared to vinpocetine (in words) / fold improvement in PDE1A inhibitory activity compared to vinpocetine: relative to vinpocetine. The format is biochemical. The protocol: The assays were carried out as described previously. All of the enzymatic reactions were conducted at 25 °C for 1 h. The reaction mixture contains 40 mM MOPS (pH 7.5), 0.5 mM EDTA, 15 mM MgCl2, 0.15 mg/mL BSA, 1 mM DTT, 0.05% Proclin 200, 15 ng/mL PDE1A, and 100 nM FAM-cyclic-3′, 5′-AMP. The compounds were dissolved in 10% DMSO, and 5 μL of the dilution was added to a 50 μL reaction for a final concentration of 1% DMSO in all reactions. The reaction mixture was incubated at 25 °C for 1 h. Then, 100 μL of diluted binding agent was added to each well and incubated at 25 °C for 1 h with slow shaking. The fluorescence polarization of the sample was detected using an excitation filter of 360 nm and an emission filter of 480 nm. The IC50 values were calculated using non-linear regression with a normalized dose–response fit using Prism 6 (GraphPad Software, San Diego, CA, USA).
Chain of PDE1A (P54750 whole entry, species assumed): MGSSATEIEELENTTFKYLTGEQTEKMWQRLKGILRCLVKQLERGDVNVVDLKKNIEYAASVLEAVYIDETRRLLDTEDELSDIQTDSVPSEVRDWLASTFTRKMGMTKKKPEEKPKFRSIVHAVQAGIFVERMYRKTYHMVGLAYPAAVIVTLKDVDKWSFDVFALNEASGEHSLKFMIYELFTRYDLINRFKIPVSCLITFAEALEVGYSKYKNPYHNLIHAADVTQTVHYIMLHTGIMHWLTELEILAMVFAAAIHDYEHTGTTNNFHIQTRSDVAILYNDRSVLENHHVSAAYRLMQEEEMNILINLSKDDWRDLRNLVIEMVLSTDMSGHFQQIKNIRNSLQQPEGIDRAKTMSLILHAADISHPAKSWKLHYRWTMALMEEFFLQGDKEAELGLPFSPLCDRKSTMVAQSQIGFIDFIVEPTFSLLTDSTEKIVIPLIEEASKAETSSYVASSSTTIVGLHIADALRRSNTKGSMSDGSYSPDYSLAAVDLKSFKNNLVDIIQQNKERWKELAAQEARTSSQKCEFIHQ

Each structure is given as a SMILES string.

Consider `CC[C@@]12C=C(COCc3cccc(Br)c3)n3c4c(c5ccccc53)CCN(CCC1)[C@H]42` [Compound 12, (41S,13aS)-12-(((3-bromobenzyl)oxy)methyl)-13a-ethyl-2,3,41,5,6,13a-hexahydro-1H-indolo[3,2,1-de]pyrido[3,2,1-ij][1,5]naphthyridine], for which the IC50 was 12.5 ± 1.06 µM and the “PDE1A inhibitory activity compared to vinpocetine (in words)” value is recorded as “superior inhibitory activity compared to vinpocetine”.

Consider `CCC12C=C(COCc3cnc(Cl)s3)n3c4c(c5ccccc53)CCN(CCC1)C42` [Compound 25, 2-chloro-5-((((41S,13aS)-13a-ethyl-2,3,41,5,6,13a-hexahydro-1H-indolo[3,2,1-de]pyrido[3,2,1-ij][1,5]naphthyridin-12-yl)methoxy)methyl)thiazole], for which the IC50 came out at 2.08 ± 0.16 µM, the “PDE1A inhibitory activity compared to vinpocetine (in words)” value is given as “superior inhibitory activity compared to vinpocetine” and the “fold improvement in PDE1A inhibitory activity compared to vinpocetine” value amounted to 8 fold.

Compound `CC[C@@]12C=C(COCc3cccc(C(F)(F)F)c3)n3c4c(c5ccccc53)CCN(CCC1)[C@H]42` [Compound 17, (41S,13aS)-13a-ethyl-12-(((3-(trifluoromethyl)benzyl)oxy)methyl)-2,3,41,5,6,13a-hexahydro-1H-indolo[3,2,1-de]pyrido[3,2,1-ij][1,5]naphthyridine] showed an IC50 of 48.4 ± 1.44 µM.

The compound `CC[C@@]12C=C(COCc3ccccc3)n3c4c(c5ccccc53)CCN(CCC1)[C@H]42` [Compound 2, (41S,13aS)-12-((benzyloxy)methyl)-13a-ethyl-2,3,41,5,6,13a-hexahydro-1H-indolo[3,2,1-de]pyrido[3,2,1-ij][1,5]naphthyridine] came in with an IC50 of 19.2 ± 2.25 µM.

The compound `CCOC(=O)C1=C[C@]2(CC)CCCN3CCc4c(n1c1ccccc41)[C@@H]32` [Vinpocetine] yielded an IC50 of 17.3 ± 1.21 µM.

`CC[C@@]12C=C(COCc3cc(F)cc(F)c3)n3c4c(c5ccccc53)CCN(CCC1)[C@H]42` [Compound 22, (41S,13aS)-12-(((3,5-difluorobenzyl)oxy)methyl)-13a-ethyl-2,3,41,5,6,13a-hexahydro-1H-indolo[3,2,1-de]pyrido[3,2,1-ij][1,5]naphthyridine] registered an IC50 of 46.4 ± 1.94 µM.

Regarding `CC[C@@]12C=C(COCc3cccc(Cl)c3)n3c4c(c5ccccc53)CCN(CCC1)[C@H]42` [Compound 9, (41S,13aS)-12-(((3-chlorobenzyl)oxy)methyl)-13a-ethyl-2,3,41,5,6,13a-hexahydro-1H-indolo[3,2,1-de]pyrido[3,2,1-ij][1,5]naphthyridine], half-maximal inhibition (IC50) was put at 72.1 ± 3.89 µM.

For the compound `CCC12C=C(COCc3cccc(C)c3)n3c4c(c5ccccc53)CCN(CCC1)C42` [Compound 4, (41S,13aS)-13a-ethyl-12-(((3-methylbenzyl)oxy)methyl)-2,3,41,5,6,13a-hexahydro-1H-indolo[3,2,1-de]pyrido[3,2,1-ij][1,5]naphthyridine], the IC50 is 3.53 ± 0.25 µM, the “PDE1A inhibitory activity compared to vinpocetine (in words)” value is listed as “superior inhibitory activity compared to vinpocetine” and the “fold improvement in PDE1A inhibitory activity compared to vinpocetine” value was 5 fold.

Turning to `CC[C@@]12C=C(COCc3cc(C)cc(C)c3)n3c4c(c5ccccc53)CCN(CCC1)[C@H]42` [Compound 21, (41S,13aS)-12-(((3,5-dimethylbenzyl)oxy)methyl)-13a-ethyl-2,3,41,5,6,13a-hexahydro-1H-indolo[3,2,1-de]pyrido[3,2,1-ij][1,5]naphthyridine], the half-maximal inhibitory concentration (IC50) turned out to be 10 ± 0.85 µM and the “PDE1A inhibitory activity compared to vinpocetine (in words)” value is “superior inhibitory activity compared to vinpocetine”.

With `CC[C@@]12C=C(COCc3cc(Br)cc(Br)c3)n3c4c(c5ccccc53)CCN(CCC1)[C@H]42` [Compound 23, (41S,13aS)-12-(((3,5-dibromobenzyl)oxy)methyl)-13a-ethyl-2,3,41,5,6,13a-hexahydro-1H-indolo[3,2,1-de]pyrido[3,2,1-ij][1,5]naphthyridine], the midpoint of inhibition, the IC50, lay at 58.2 ± 3.2 µM.

The compound `CC[C@@]12C=C(COCc3ccccc3C#N)n3c4c(c5ccccc53)CCN(CCC1)[C@H]42` [Compound 15, 2-((((41S,13aS)-13a-ethyl-2,3,41,5,6,13a-hexahydro-1H-indolo[3,2,1-de]pyrido[3,2,1-ij][1,5]naphthyridin-12-yl)methoxy)methyl)benzonitrile] gave a 50% inhibitory concentration (IC50) of 45.1 ± 2.27 µM.

The compound `CC[C@@]12C=C(COCc3cccc4ccccc34)n3c4c(c5ccccc53)CCN(CCC1)[C@H]42` [Compound 19, (41S,13aS)-13a-ethyl-12-((naphthalen-1-ylmethoxy)methyl)-2,3,41,5,6,13a-hexahydro-1H-indolo[3,2,1-de]pyrido[3,2,1-ij][1,5]naphthyridine] showed a half-inhibitory concentration (IC50) of 54.3 ± 1.84 µM.

Turning to `CC[C@@]12C=C(COCc3ccc(Br)cc3)n3c4c(c5ccccc53)CCN(CCC1)[C@H]42` [Compound 11, (41S,13aS)-12-(((4-bromobenzyl)oxy)methyl)-13a-ethyl-2,3,41,5,6,13a-hexahydro-1H-indolo[3,2,1-de]pyrido[3,2,1-ij][1,5]naphthyridine], the IC50 worked out at 54.8 ± 3.42 µM.

As for `CC[C@@]12C=C(COCc3cc(C)nn3C)n3c4c(c5ccccc53)CCN(CCC1)[C@H]42` [Compound 24, (41S,13aS)-12-(((1,3-dimethyl-1H-pyrazol-5-yl)methoxy)methyl)-13a-ethyl-2,3,41,5,6,13a-hexahydro-1H-indolo[3,2,1-de]pyrido[3,2,1-ij][1,5]naphthyridine], the IC50 came out at 63.7 ± 3.85 µM.

For `CC[C@@]12C=C(COCc3ccc(C(F)(F)F)cc3)n3c4c(c5ccccc53)CCN(CCC1)[C@H]42` [Compound 16, (41S,13aS)-13a-ethyl-12-(((4-(trifluoromethyl)benzyl)oxy)methyl)-2,3,41,5,6,13a-hexahydro-1H-indolo[3,2,1-de]pyrido[3,2,1-ij][1,5]naphthyridine], the IC50 is 57.7 ± 2.96 µM.

For the compound `CC[C@@]12C=C(COCc3ccccc3F)n3c4c(c5ccccc53)CCN(CCC1)[C@H]42` [Compound 7, (41S,13aS)-13a-ethyl-12-(((2-fluorobenzyl)oxy)methyl)-2,3,41,5,6,13a-hexahydro-1H-indolo[3,2,1-de]pyrido[3,2,1-ij][1,5]naphthyridine], inhibition was half-maximal at 28.7 ± 1.15 µM (IC50).

Compound `CC[C@@]12C=C(COCc3ccccc3Br)n3c4c(c5ccccc53)CCN(CCC1)[C@H]42` [Compound 13, (41S,13aS)-12-(((2-bromobenzyl)oxy)methyl)-13a-ethyl-2,3,41,5,6,13a-hexahydro-1H-indolo[3,2,1-de]pyrido[3,2,1-ij][1,5]naphthyridine] had an IC50 of 88.3 ± 3.26 µM.

`CC[C@@]12C=C(COCc3ccc(-c4ccccc4)cc3)n3c4c(c5ccccc53)CCN(CCC1)[C@H]42` [Compound 18, (41S,13aS)-12-(([1,1′-biphenyl]-4-ylmethoxy)methyl)-13a-ethyl-2,3,41,5,6,13a-hexahydro-1H-indolo[3,2,1-de]pyrido[3,2,1-ij][1,5]naphthyridine] had a half-maximal inhibitory concentration (IC50) of 44.8 ± 2.26 µM.

`CC[C@@]12C=C(COCc3cccc(F)c3)n3c4c(c5ccccc53)CCN(CCC1)[C@H]42` [Compound 6, (41S,13aS)-13a-ethyl-12-(((3-fluorobenzyl)oxy)methyl)-2,3,41,5,6,13a-hexahydro-1H-indolo[3,2,1-de]pyrido[3,2,1-ij][1,5]naphthyridine] displayed an IC50 of 25.6 ± 1.23 µM.

On to `CC[C@@]12C=C(COCc3ccc(C#N)cc3)n3c4c(c5ccccc53)CCN(CCC1)[C@H]42` [Compound 14, 4-((((41S,13aS)-13a-ethyl-2,3,41,5,6,13a-hexahydro-1H-indolo[3,2,1-de]pyrido[3,2,1-ij][1,5]naphthyridin-12-yl)methoxy)methyl)benzonitrile], for which the IC50 worked out at 15.6 ± 1.09 µM and the “PDE1A inhibitory activity compared to vinpocetine (in words)” value is recorded as “superior inhibitory activity compared to vinpocetine”.

`CC[C@@]12C=C(COCc3ccc4ccccc4c3)n3c4c(c5ccccc53)CCN(CCC1)[C@H]42` [Compound 20, (41S,13aS)-13a-ethyl-12-((naphthalen-2-ylmethoxy)methyl)-2,3,41,5,6,13a-hexahydro-1H-indolo[3,2,1-de]pyrido[3,2,1-ij][1,5]naphthyridine] gave an IC50 of 89.6 ± 5.34 µM.

For the compound `CC[C@@]12C=C(COCc3ccc(C)cc3)n3c4c(c5ccccc53)CCN(CCC1)[C@H]42` [Compound 3, (41S,13aS)-13a-ethyl-12-(((4-methylbenzyl)oxy)methyl)-2,3,41,5,6,13a-hexahydro-1H-indolo[3,2,1-de]pyrido[3,2,1-ij][1,5]naphthyridine], the 50% inhibitory concentration (IC50) is 8.52 ± 0.68 µM and the “PDE1A inhibitory activity compared to vinpocetine (in words)” value was “superior inhibitory activity compared to vinpocetine”.

As to `CC[C@@]12C=C(COCc3ccc(Cl)cc3)n3c4c(c5ccccc53)CCN(CCC1)[C@H]42` [Compound 8, (41S,13aS)-12-(((4-chlorobenzyl)oxy)methyl)-13a-ethyl-2,3,41,5,6,13a-hexahydro-1H-indolo[3,2,1-de]pyrido[3,2,1-ij][1,5]naphthyridine], the half-maximal inhibitory concentration (IC50) amounted to 48.8 ± 2.55 µM.

Regarding `CC[C@@]12C=C(COCc3ccc(F)cc3)n3c4c(c5ccccc53)CCN(CCC1)[C@H]42` [Compound 5, (41S,13aS)-13a-ethyl-12-(((4-fluorobenzyl)oxy)methyl)-2,3,41,5,6,13a-hexahydro-1H-indolo[3,2,1-de]pyrido[3,2,1-ij][1,5]naphthyridine], the concentration for half-maximal inhibition (IC50) was 17.2 ± 3.75 µM and the “PDE1A inhibitory activity compared to vinpocetine (in words)” value is reported as “superior inhibitory activity compared to vinpocetine”.

`CC[C@@]12C=C(COCc3ccccc3Cl)n3c4c(c5ccccc53)CCN(CCC1)[C@H]42` [Compound 10, (41S,13aS)-12-(((2-chlorobenzyl)oxy)methyl)-13a-ethyl-2,3,41,5,6,13a-hexahydro-1H-indolo[3,2,1-de]pyrido[3,2,1-ij][1,5]naphthyridine] registered a 50% inhibitory concentration (IC50) of 35 ± 1.85 µM.

The IC50 is the point on the concentration scale where inhibition reaches its midpoint. Low readings indicate greater potency, high ones weaker potency.
